In paper PMC8857278, “Incomplete tricarboxylic acid cycle and proton gradient in Pandoravirus massiliensis: is it still a virus?” (The ISME Journal, 2021):

How the values were obtained:
human IDH = system: T1, human IDH; settings: 37 °C, 100 µL, kit buffer; NAD+ or NADP+ co-substrate not specified; varied substrate implied to be isocitrate
T1 construct: gene IDH1

ORF132 = system: T2, ORF132; test: isocitrate dehydrogenase activity assay kit, absorbance […] nm, NADH standard curve, Michaelis-Menten fit; assay type: biochemical, Pandoravirus massiliensis; settings: 37 °C, 100 µL, kit buffer; NAD+ or NADP+ co-substrate not specified; varied substrate implied to be isocitrate
T2 construct: full-length ORF, 146 residues; N-terminal Strep-tag, codon-optimised synthetic gene in pET22b(+); E. coli BL21(DE3); StrepTrap purified

`O=C(O)C[C@H](C(=O)O)[C@@H](O)C(=O)O` [isocitrate] gave a Km (human IDH) of 585 µM and a Km (ORF132) of 51.8 µM.
